The values that follow come from PMC3471904 (PLoS ONE, 2012).

≈ marks a conversion by molar mass, not a printed value. Where “and” joins values, the source holds several entries; their conditions need not be identical. Equal entries are not always repeated. Entries after “also recorded” stand apart in the source; their conditions may differ. Where two headings read alike, the source gives them in different places.

The subject of one data set is F. novicida. The arrangement: species or system Galleria mellonella. The conditions noted are these: in vivo.
Another data set has as its system Wild-type F. novicida. Put plainly: microbe, parasite or virus in culture. The conditions noted are these: for inhibition at 1000 µM: read-out: Inhibition of growth. The class given is cell-based.
For the next data set, the system named is F. novicida glpT mutant. It is filed as cell-based.
The test system of data set [1] is intracellular F. novicida in A549 human alveolar epithelial cells. Kind of data set: microbe, parasite or virus in culture. It is filed as cell-based.
Data set [2] relates to intracellular F. novicida in RAW264.7 mouse macrophages. The class given is cell-based.
For data set [3], the system named is intracellular F. novicida glpT mutant in A549 cells. It is filed as cell-based.
In data set [4] the test system is human lung epithelial A549 cells.
The test system of data set [5] is mouse macrophage RAW264.7 cells.
A further data set deals with F. tularensis LVS DXR (Francisella tularensis subsp. holarctica, UniProt Q2A4P9). Put plainly: biochemical.
The test system of the next data set is DXR of E. coli. The conditions noted are these: cited from earlier work.
For data set [6], the system named is M. tuberculosis whole cells. Particulars: cited from earlier work.
The conditions of data set [7]: mouse, in vivo; cited from earlier work.
For a further data set, the system named is DXR from M. tuberculosis. Particulars: read-out: half maximal activity against DXR; cited from earlier work.
The mark [8] stands for this setting: Francisella tularensis, A549, 20 h, read-out: Inhibition of intracellular growth.

F. tularensis LVS DXR, sequence (Q2A4P9 whole entry, looked up): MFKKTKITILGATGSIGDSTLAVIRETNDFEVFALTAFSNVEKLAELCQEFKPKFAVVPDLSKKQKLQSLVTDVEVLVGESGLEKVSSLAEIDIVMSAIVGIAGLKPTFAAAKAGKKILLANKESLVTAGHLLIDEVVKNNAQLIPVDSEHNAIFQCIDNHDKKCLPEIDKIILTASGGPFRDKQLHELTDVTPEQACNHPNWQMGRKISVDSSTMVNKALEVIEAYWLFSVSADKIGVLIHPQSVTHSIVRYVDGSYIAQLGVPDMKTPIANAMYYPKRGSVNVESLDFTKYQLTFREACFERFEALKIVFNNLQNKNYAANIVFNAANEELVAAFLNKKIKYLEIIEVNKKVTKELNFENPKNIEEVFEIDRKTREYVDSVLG

Consider `O=C(O)c1cn(C2CC2)c2cc(N3CCNCC3)c(F)cc2c1=O` [Ciprofloxacin], for which the “Mean time to death” value with F. novicida (20 mg/kg) turned out to be 103 h.

What is called EC50 is the concentration giving half of the maximal effect. In general, inhibition refers to the percentage by which the read-out fell short of the control. With `CC(=O)N(O)CCCP(=O)(OC(C)OC(=O)c1ccccc1)OC(C)OC(=O)c1ccccc1` (stereo not drawn) [Compound 1], in the data set with Wild-type F. novicida, the EC50 came to 45.2 ± 3.7 µM and the “Percent inhibition of growth (OD600 treated vs untreated)” value (shortened to “Percent inhibition of growth”) turned out to be 100%. In the data set on Wild-type F. novicida (Francisella tularensis), this compound displayed an EC50 of 45 µM. In the data set with Wild-type F. novicida (Francisella tularensis, 48 h), this compound displayed an MIC of 202 µM (≈ 99.7 µg/mL). In the data set on F. novicida glpT mutant, the MIC is 200 µM (≈ 98.7 µg/mL) and the “Percent inhibition of growth” value turned out to be 100%. For the same compound, in data set [1] (setting [8]), the inhibition at 250 µM amounted to 97 ± 0.8% and the inhibition at 400 µM came to 99 ± 0.7%. Besides, the “Intracellular F. novicida remaining” value in data set [2] was 1.68±0.28 ×10^5 CFU/well and 0.92±0.18 ×10^5 CFU/well. In [3], the “Effect on intracellular glpT mutant replication” value is given as “susceptible; also recorded: significant effect” and the “Intracellular glpT mutant remaining” value is 22.32±2.23 ×10^3 CFU/well. Further, in the data set with F. novicida (30 mg/kg), the “Mean time to death” value turned out to be 93 h. The “Cytotoxicity by LDH release” value in [4] was “did not induce cytotoxicity”. Also, in [5], the “Cytotoxicity by LDH release” value was “did not induce cytotoxicity”.

Regarding `CCCCCCOP(=O)(CCCN(O)C(C)=O)OCCCCCC` [Compound 2], the “Percent inhibition of growth” value was 27±14% with Wild-type F. novicida and 11±7% with F. novicida glpT mutant. The EC50 in the data set with Wild-type F. novicida (Francisella tularensis) is 481 ± 44 µM. The MIC in the data set on Wild-type F. novicida (Francisella tularensis) is 1100 µM (≈ 402 µg/mL); against Wild-type F. novicida (Francisella tularensis, 48 h), 1090 µM (≈ 400 µg/mL); in the data set on F. novicida glpT mutant it was over 1000 µM.

Regarding `CCOP(=O)(CCCN(O)C(C)=O)OCC` [Compound 3], the “Inhibition of F. novicida (result in words)” value in the data set with Wild-type F. novicida is given as “did not effectively inhibit; also recorded: ineffective”.

Consider `CC(=O)N(O)CCCP(=O)(O)O` [FR900098], for which the EC50 was found to be 23.2 ± 1.2 µM with Wild-type F. novicida and 23 µM in the data set with Wild-type F. novicida (Francisella tularensis). In addition, the results for the “Percent inhibition of growth” value in the data set on Wild-type F. novicida and with F. novicida glpT mutant were 97.1±0.8% and 55±5%, respectively. Further, the MIC against Wild-type F. novicida (Francisella tularensis, 48 h) is 254 µM (≈ 50.1 µg/mL); in the data set with F. novicida glpT mutant, over 1000 µM. Also, in the data set on Wild-type F. novicida (Francisella tularensis), the inhibition at 1000 µM turned out to be 100%. Moreover, the results for the IC50 against F. tularensis LVS DXR and with DXR of E. coli (read-out: IC50 against the DXR of E. coli) were 0.23 µM and 0.062 µM, respectively. In data set [1], the “Inhibition of intracellular growth” value was 85±10%. Moreover, the “Intracellular F. novicida remaining” value in [1] is 0.56±0.26 ×10^3 CFU/well and 0.59±0.40 ×10^3 CFU/well. Further, in data set [1] (setting [8]), the inhibition at 250 µM was found to be 86 ± 6%. Also, the “Effect on intracellular glpT mutant replication” value in data set [3] is recorded as “not affected; also recorded: no effect”. Besides, in the data set with F. novicida (30 mg/kg), the “Mean time to death” value worked out at 84 h. Moreover, the “Cytotoxicity by LDH release” value in [4] and in [5] was “did not induce cytotoxicity” each time. In addition, the “Effect on whole cells” value in data set [6] was “no effect on whole cells”. Moreover, in data set [7], the Well tolerated dose entry is “up to 300 mg/kg”.

Take `O=CN(O)CCCP(=O)(O)O` [Fosmidomycin]: the EC50 in the data set on Wild-type F. novicida was 3.6 ± 0.2 µM; in the data set with Wild-type F. novicida (Francisella tularensis), 3.5 µM. The “Percent inhibition of growth” value in the data set with Wild-type F. novicida is on record as 99.6±0.2%; with F. novicida glpT mutant, “did not inhibit the growth of the glpT mutant at all”. In addition, the MIC is 136 µM (≈ 24.9 µg/mL) in the data set with Wild-type F. novicida (Francisella tularensis, 48 h) and over 1000 µM against F. novicida glpT mutant. The inhibition at 1000 µM in the data set with Wild-type F. novicida (Francisella tularensis) is 100%. Further, in the data set with F. novicida glpT mutant, the Inhibition of growth result is reported as “not able to inhibit F. novicida glpT growth at all; also recorded: completely resistant”. Also, the “Intracellular F. novicida remaining” value in data set [1] is given as 0.07±0.03 ×10^3 CFU/well; in data set [2], 0.93±0.20 ×10^5 CFU/well. Further, the “Reduction of intracellular bacteria” value in data set [1] is on record as 2 log. Also, the inhibition at 250 µM in data set [1] (setting [8]) amounted to 98 ± 0.7%. For the same compound, the “Effect on intracellular glpT mutant replication” value in [3] was “not affected; also recorded: no effect”. Moreover, the “Mean time to death” value in the data set with F. novicida (30 mg/kg) turned out to be 102 h. Further, the “Cytotoxicity by LDH release” value in [4] and in data set [5] was “did not induce cytotoxicity” throughout. The figures for the IC50 in the data set with DXR of E. coli (read-out: half maximal activity against DXR) and in the data set on DXR from M. tuberculosis were 0.035 µM and 0.31 µM, respectively. Moreover, in data set [6], the “Effect on whole cells” value was “no effect on whole cells”. In data set [7], the Well tolerated dose result is “up to 300 mg/kg”.
